Test results reported in patent US8653096B2, “Chemokine receptor antagonists and methods of use thereof” (Millennium Pharmaceuticals, Inc., priority 2001, dated 2014).

Biological target: T1, RANTES/MIP-1α chemokine receptor (CCR1) in THP-1 cell membranes (Homo sapiens, UniProt P32246)
T1 construct: Membranes were prepared from THP-1 cells (ATCC #TIB202); host or cells: THP-1 cells (membrane preparation)
T1 sequence (P32246 1-355): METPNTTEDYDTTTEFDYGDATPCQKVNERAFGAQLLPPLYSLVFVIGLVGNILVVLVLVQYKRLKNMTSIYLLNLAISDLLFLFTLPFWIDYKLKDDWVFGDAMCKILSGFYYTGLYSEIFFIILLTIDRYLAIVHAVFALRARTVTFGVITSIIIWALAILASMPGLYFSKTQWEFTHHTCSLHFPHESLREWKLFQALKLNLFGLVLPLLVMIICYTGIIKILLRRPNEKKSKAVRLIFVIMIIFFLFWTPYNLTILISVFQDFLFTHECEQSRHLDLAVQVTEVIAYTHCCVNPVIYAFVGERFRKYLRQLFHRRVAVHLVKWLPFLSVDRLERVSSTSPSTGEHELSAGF
Assay: Receptor binding assay: 125I-RANTES or 125I-MIP-1α binding to THP-1 cell membranes
Conditions: inhibitor concentration required for 50% inhibition of specific binding; 125I-RANTES or 125I-MIP-1α as ligand, THP-1 cell membranes; read-out: IC50

| Compound | IC50 |
| --- | --- |
| CC(C)(O)c1ccc2c(c1)C(=CCCN1CCC(O)(c3ccc(Cl)cc3)C(O)C1)c1cccnc1CO2 (centres unmarked) [Example 470, 4-(4-Chloro-phenyl)-1-{3-[7-(1-hydroxy-1-methyl-ethyl)-11H-10-oxa-1-aza-dibenzo[a,d]cyclohepten-5-ylidene]-propyl}-piperidine-3,4-diol] | < 1000 nM |
| CCC1CN(CCC=C2c3cc(C(C)(C)O)ccc3OCc3ncccc32)CCC1(O)c1ccc(Cl)cc1 (centres unmarked) [Example 471, 4-(4-Chloro-phenyl)-3-ethyl-1-{3-[7-(1-hydroxy-1-methyl-ethyl)-11H-10-oxa-1-aza-dibenzo[a,d]cyclohepten-5-ylidene]-propyl}-piperidin-4-ol] | < 1000 nM |
| CC(C)(O)c1ccc2c(c1)C(=CCCN1CCC3(CC1)OC(=O)c1cc(Cl)ccc13)c1cccnc1CO2 [Example 472, 5-Chloro-1-{3-[7-(1-hydroxy-1-methyl-ethyl)-11H-10-oxa-1-aza-dibenzo[a,d]-cyclohepten-5-ylidene}-propyl]-spiro[3-oxo-1,3-dihydroisobenzofuran-1,4′-piperidine]] | < 1000 nM |
| COC1(c2ccc(Cl)cc2)CCN(CCC=C2c3cc(C(C)(C)O)ccc3OCc3ncccc32)CC1(C)O (centres unmarked) [Example 473, 4-(4-Chloro-phenyl)-1-{3-[7-(1-hydroxy-1-methyl-ethyl)-11H-10-oxa-1-aza-dibenzo[a,d]cyclohepten-5-ylidene]-propyl}-4-methoxy-3-methyl-piperidin-3-ol] | < 1000 nM |
| COC1(c2ccc(Cl)cc2)CCN(CCC=C2c3cc(C(C)(C)O)ccc3OCc3ncccc32)CC1O (centres unmarked) [Example 474, 4-(4-Chloro-phenyl)-1-{3-[7-(1-hydroxy-1-methyl-ethyl)-11H-10-oxa-1-aza-dibenzo[a,d]cyclohepten-5-ylidene]-propyl}-4-methoxy-piperidin-3-ol] | < 1000 nM |
| COC1CN(CCC=C2c3cc(C(C)(C)O)ccc3OCc3ncccc32)CCC1(OC)c1ccc(Cl)cc1 (centres unmarked) [Example 475, 2-(5-{3-[4-(4-Chloro-phenyl)-3,4-dimethoxy-piperidin-1-yl]-propylidene}-5,11-dihydro-10-oxa-1-aza-dibenzo[a,d]cyclohepten-7-yl)-propan-2-ol] | < 1000 nM |
| CC(C)(O)c1ccc2c(c1)C(=CCCN1CCC(O)(c3ccc(Cl)cc3)C(N=[N+]=[N-])C1)c1cccnc1CO2 (centres unmarked) [Example 476, 3-Azido-4-(4-chloro-phenyl)-1-{3-[7-(1-hydroxy-1-methyl-ethyl)-11H-10-oxa-1-aza-dibenzo[a,d]cyclohepten-5-ylidene}-propyl}-piperidin-4-ol] | < 1000 nM |
| CC(C)(O)c1ccc2c(c1)C(=CCCN1CCC(N=[N+]=[N-])(c3ccc(Cl)cc3)C(O)C1)c1cccnc1CO2 (centres unmarked) [Example 477, 4-Azido-4-(4-chloro-phenyl)-1-{3-[7-(1-hydroxy-1-methyl-ethyl)-11H-10-oxa-1-aza-dibenzo[a,d]cyclohepten-5-ylidene]-propyl}-piperidin-3-ol] | < 10000 nM |
| CCC(=O)NC1CN(CCC=C2c3cc(C(C)(C)O)ccc3OCc3ncccc32)CCC1(O)c1ccc(Cl)cc1 (centres unmarked) [Example 478, N-[4-(4-Chloro-phenyl)-4-hydroxy-1-{3-[7-(hydroxyl-1-methyl-ethyl)-11H-10-oxa-1-aza-dibenzo[a,d]cyclohepten-5-ylidene]-propyl}-piperidin-3-yl)-propionamide] | < 10000 nM |
| COC(=O)C1(C)CN(CCC=C2c3cc(C(C)(C)O)ccc3OCc3ncccc32)CCC1(O)c1ccc(Cl)cc1 (centres unmarked) [Example 481, 4-(4-Chloro-phenyl)-4-hydroxy-1-{3-[7-(hydroxyl-1-methyl-ethyl)-11H-10-oxa-1-aza-dibenzo[a,d]cyclohepten-5-ylidene}-propyl]-3-methyl-piperidine-3-carboxylic acid methyl ester] | < 1000 nM |
| CC(C)(O)c1ccc2c(c1)C(=CCCN1CCC(O)(c3ccc(Cl)cc3)C(C)(CO)C1)c1cccnc1CO2 (centres unmarked) [Example 482, 4-(4-Chloro-phenyl)-3-hydroxymethyl-1-{3-[7-(hydroxyl-1-methyl-ethyl)-11H-10-oxa-1-aza-dibenzo[a, d]cyclohepten-5-ylidene]-propyl}-3-methyl-piperidine-4-ol] | < 1000 nM |
| CCOCC1(C)CN(CCC=C2c3cc(C(C)(C)O)ccc3OCc3ncccc32)CCC1(O)c1ccc(Cl)cc1 (centres unmarked) [Example 484, 4-(4-Chloro-phenyl)-3-ethoxymethyl-1-{3 [7-(-hydroxy-1-methyl-ethyl)-11H-10-oxa-1-aza-dibenzo[a,d]cyclohepten-5-ylidene]-propyl}-3-methyl-piperidin-4-ol] | < 1000 nM |
| CCOC(=O)COCC1(C)CN(CCC=C2c3cc(C(C)(C)O)ccc3OCc3ncccc32)CCC1(O)c1ccc(Cl)cc1 (centres unmarked) [Example 485, (4-(4-Chloro-phenyl)-4-hydroxy-1-{3 [7-(1-hydroxy-1-methyl-ethyl)-11H-10-oxa-1-aza-dibenzo[a,d]cyclohepten-5-ylidene]-propyl}-3-methyl-piperidin-3-ylmethoxy)-acetic acid ethyl ester] | < 1000 nM |
| CCN(CC)CCOCC1(C)CN(CCC=C2c3cc(C(C)(C)O)ccc3OCc3ncccc32)CCC1(O)c1ccc(Cl)cc1 (centres unmarked) [Example 486] | < 1000 nM |
| CCN(Cc1ccc(Cl)cc1)C1CCN(CCC=C2c3cc(C(C)(C)O)ccc3OCc3ncccc32)CC1 [Example 487, 2-[5-(3-{4-[(4-Chloro-benzyl)ethyl-amino]-piperidin-1-yl}-propylidene)-5,11-dihydro-10-oxa-1-aza-dibenzo[a,d]cyclohepten-7-yl]-propan-2-ol] | < 1000 nM |
| CC(C)(O)c1ccc2c(c1)C(=CCCN1CCC(O)(c3ccccc3Cl)CC1)c1cccnc1CO2 [Example 489, 4-(2-Chloro-phenyl)-1-{3-[7-(1-hydroxy-1-methyl-ethyl)-11H-10-oxa-1-azadibenzo[a,d]cyclohepten-5-ylidene]-propyl}-piperidin-4-ol] | < 10000 nM |
| Cc1cc(Cl)ccc1C1(O)CCN(CCC=C2c3cc(C(C)(C)O)ccc3OCc3ncccc32)CC1 [Example 490, 4-(4-Chloro-2-methyl-phenyl)-1-{3-[7-(1-hydroxy-1-methyl-ethyl)-11H-10-oxa-1-aza-dibenzo[a,d]cyclohepten-5-ylidene]-propyl}-piperidin-4-ol] | < 1000 nM |
| CC(C)(O)c1ccc2c(c1)C(=CCCN1CCC(O)(c3ccc(Cl)c(Cl)c3)CC1)c1cccnc1CO2 [Example 491, 4-(3,4-Dichloro-phenyl)-1-{3-[7-(1-hydroxy-1-methyl-ethyl)-11H-10-oxa-1-aza-dibenzo[a,d]cyclohepten-5-ylidene]-propyl}-piperidin-4-ol] | < 1000 nM |
| CC(C)(O)c1ccc2c(c1)C(=CCCN1CCC(O)(c3ccc(Cl)c([N+](=O)[O-])c3)CC1)c1cccnc1CO2 [Example 492, 4-(4-Chloro-3-nitro-phenyl)-1-{3-[7-(1-hydroxy-1-methyl-ethyl)-11H-10-oxa-1-aza-dibenzo[a,d]cyclohepten-5-ylidene]-propyl}-piperidin-4-ol] | < 10000 nM |
| CCN(c1ccc(Cl)cc1)C1CCN(CCC=C2c3cc(C(C)(C)O)ccc3OCc3ncccc32)CC1 [Example 493, 2-[5-(3-{4-[(4-Chloro-phenyl)-ethyl-amino]-piperidin-1-yl}-propylidene)-5,11-dihydro-10-oxa-1-aza-dibenzo[a,d]cyclohepten-7-yl]-propan-2-ol] | < 10000 nM |
| COC1(c2ccc(Cl)cc2)CCN(CCC=C2c3cc(C(C)(C)O)ccc3OCc3ncccc32)CC1 [Example 494, 2-(5-{3-[4-(4-Chloro-phenyl)-4-methoxy-piperidin-1-yl]-propylidene}-5,11-dihydro-10-oxa-1-aza-dibenzo[a,d]cyclohepten-7-yl)-propan-2-ol] | < 1000 nM |
| CC(C)(O)c1ccc2c(c1)C(=CCCN1CCC(Oc3ccccc3Cl)CC1)c1cccnc1CO2 [Example 495, 2-(5-{3-[4-(2-Chloro-phenoxy)-piperidin-1-yl]-propylidene}-5,11-dihydro-10-oxa-1-aza-dibenzo[a,d]cyclohepten-7-yl)-propan-2-ol] | < 1000 nM |
| CC(C)(O)c1ccc2c(c1)C(=CCCN1CCC(C(=O)c3ccc(Cl)cc3)CC1)c1cccnc1CO2 [Example 496, (4-Chloro-phenyl)-(1-{3-[7-(1-hydroxy-1-methyl-ethyl)-11H-10-oxa-1-aza-dibenzo[a,d]cyclohepten-5-ylidene]-propyl}-piperidin-4-yl)-methanone] | < 10000 nM |
| CC(C)(O)c1ccc2c(c1)C(=CCCN1CCC(Oc3ccc(C(F)(F)F)cc3)CC1)c1cccnc1CO2 [Example 497, 2-(5-{3-[4-(4-trifluoromethyl-phenoxy)-piperidin-1-yl]-propylidene}-5,11-dihydro-10-oxa-1-aza-dibenzo[a,d]cyclohepten-7-yl)-propan-2-ol] | < 10000 nM |
| CC(C)(O)c1ccc2c(c1)C(=CCCN1CCC(N3C(=O)OCC3Cc3ccc(Cl)cc3)CC1)c1cccnc1CO2 (centres unmarked) [Example 498, 4-(4-Chloro-benzyl)-3-(1-{3-[7-(1-hydroxy-1-methyl-ethyl)-11H-10-oxa-1-aza-dibenzo[a,d]cyclohepten-5-ylidene]-propyl}-piperidin-4-yl)-oxazolidin-2-one] | < 10000 nM |
| C=C(C)c1ccc2c(c1)C(=CCCN1CCC(c3ccc(Cl)cc3)(C(C)O)CC1)c1cccnc1CO2 (centres unmarked) [Example 499, 1-{4-(4-Chloro-phenyl)-1-[3-(7-isopropenyl-11H-10-oxa-1-aza-dibenzo[a,d]cyclohepten-5-ylidene)-propyl]-piperidin-4-yl}-ethanol] | < 10000 nM |
